Results as given in patent US12201633B2, “Compounds and methods for treatment of visceral pain” (Arena Pharmaceuticals, Inc., priority 2017, dated 2025).
pEC50: −log10 of the molar value.

Assays:
human CB2 receptor [1] = biological target: T1, human CB2 receptor (Homo sapiens, UniProt P34972); assay: HTRF assay for direct cAMP measurement, CB2; type: cell-based; parameters: 93-0164 (CHO-K1 EA-Arrestin parental line); host or cells: CHO-K1 EA-Arrestin, clone #61
human CB2 receptor [2] = biological target: T1, human CB2 receptor; assay: PathHunter β-arrestin assay, CB2
hCB1 = hCB1 (Homo sapiens, UniProt P21554); assay: PathHunter β-arrestin assay, CB1
Chain of hCB1 (P21554 whole entry): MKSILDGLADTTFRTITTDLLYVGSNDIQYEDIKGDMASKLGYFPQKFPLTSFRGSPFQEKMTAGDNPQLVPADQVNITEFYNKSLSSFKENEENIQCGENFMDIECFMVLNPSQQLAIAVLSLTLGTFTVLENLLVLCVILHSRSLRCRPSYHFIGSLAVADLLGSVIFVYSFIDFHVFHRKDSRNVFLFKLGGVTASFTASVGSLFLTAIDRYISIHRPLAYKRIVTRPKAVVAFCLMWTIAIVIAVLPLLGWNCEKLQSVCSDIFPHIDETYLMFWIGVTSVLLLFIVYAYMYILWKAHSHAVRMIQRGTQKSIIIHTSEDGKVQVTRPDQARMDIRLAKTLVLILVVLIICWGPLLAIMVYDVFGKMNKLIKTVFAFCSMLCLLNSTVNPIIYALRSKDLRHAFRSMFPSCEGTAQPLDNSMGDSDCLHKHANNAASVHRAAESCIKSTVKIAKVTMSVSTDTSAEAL

T1 sequence (P34972 whole entry): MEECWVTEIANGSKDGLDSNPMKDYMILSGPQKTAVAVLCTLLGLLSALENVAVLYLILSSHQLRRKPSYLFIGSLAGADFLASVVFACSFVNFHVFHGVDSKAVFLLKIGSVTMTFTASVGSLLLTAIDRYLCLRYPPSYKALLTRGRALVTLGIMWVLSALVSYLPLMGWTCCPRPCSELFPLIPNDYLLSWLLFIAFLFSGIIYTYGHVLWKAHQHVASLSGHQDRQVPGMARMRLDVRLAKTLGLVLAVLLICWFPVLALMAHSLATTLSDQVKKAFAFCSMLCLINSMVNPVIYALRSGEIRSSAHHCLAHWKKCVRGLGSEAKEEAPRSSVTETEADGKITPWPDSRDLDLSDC

| SMILES | pEC50 (human CB2 receptor [1]) | pEC50 (human CB2 receptor [2]) | pEC50 (hCB1) |
| --- | --- | --- | --- |
| O=C(NC1(C(F)(F)F)CCC1)c1nn(-c2c[n+]([O-])ccn2)c2c1C[C@@H]1C[C@H]21 [Compound 765, (1aS,5aS)-2-(4-Oxy-pyrazin-2-yl)-1a,2,5,5a-tetrahydro-1H-2,3-diaza-cyclopropa[a]pentalene-4-carboxylic acid (1-trifluoromethyl-cyclobutyl)-amide] | 10.00 | 8.94 |  |
| O=C(NC(CO)(CF)CF)c1nn(-c2cc(Cl)ccn2)c2c1C[C@@H]1C[C@H]21 [Compound 889, (1aS,5aS)-2-(4-Chloro-pyridin-2-yl)-1a,2,5,5a-tetrahydro-1H-2,3-diaza-cyclopropa[a]pentalene-4-carboxylic acid (2-fluoro-1-fluoromethyl-1-hydroxymethyl-ethyl)-amide] |  | 8.07 | 5.39 |
| CC(C)(C#N)NC(=O)c1nn(-c2cc(Cl)ccn2)c2c1C[C@H]1C[C@@H]21 [Compound 625, (1aR,5aR)-2-(4-Chloro-pyridin-2-yl)-1a,2,5,5a-tetrahydro-1H-2,3-diaza-cyclopropa[a]pentalene-4-carboxylic acid (cyano-dimethyl-methyl)-amide] | 8.35 | 7.93 |  |
| O=C(NC1(C(F)(F)F)CCC1)c1nn(-c2cnccn2)c2c1C[C@@H]1C[C@H]21 [Compound 926, (1aS,5aS)-2-Pyrazin-2-yl-1a,2,5,5a-tetrahydro-1H-2,3-diaza-cyclopropa[a]pentalene-4-carboxylic acid (1-trifluoromethyl-cyclobutyl)-amide] | 9.70 | 8.35 |  |
| O=C(N[C@H](CO)C1CCOCC1)c1nn(-c2cnccn2)c2c1C[C@H]1C[C@@H]21 [Compound 684, (1aR,5aR)-2-Pyrazin-2-yl-1a,2,5,5a-tetrahydro-1H-2,3-diaza-cyclopropa[a]pentalene-4-carboxylic acid ((S)-2-hydroxy-1-tetrahydro-pyran-4-yl-ethyl)-amide] | 8.15 | 7.23 |  |
| CC(C)(CO)NC(=O)c1nn(-c2cnc(C#N)cn2)c2c1C[C@H]1C[C@@H]21 [Compound 264, (1aR,5aR)-2-(5-Cyano-pyrazin-2-yl)-1a,2,5,5a-tetrahydro-1H-2,3-diaza-cyclopropa[a]pentalene-4-carboxylic acid (2-hydroxy-1,1-dimethyl-ethyl)-amide] | 8.00 |  |  |
| CC(C)(C)[C@@H](CO)NC(=O)c1nn(-c2cnccn2)c2c1C[C@H]1C[C@@H]21 [Compound 642, (1aR,5aR)-2-Pyrazin-2-yl-1a,2,5,5a-tetrahydro-1H-2,3-diaza-cyclopropa[a]pentalene-4-carboxylic acid ((S)-1-hydroxymethyl-2,2-dimethyl-propyl)-amide] | 8.36 | 7.58 |  |
| O=C(N[C@H]1c2ccccc2C[C@H]1O)c1nn(-c2c[n+]([O-])ccn2)c2c1C[C@@H]1C[C@H]21 [Compound 921, (1aS,5aS)-2-(4-Oxy-pyrazin-2-yl)-1a,2,5,5a-tetrahydro-1H-2,3-diaza-cyclopropa[a]pentalene-4-carboxylic acid ((1S,2R)-2-hydroxy-indan-1-yl)-amide] | 9.70 | 8.59 |  |
| CC(CO)(CO)NC(=O)c1nn(-c2cc(C#N)ccn2)c2c1C[C@H]1C[C@@H]21 [Compound 820, (1aR,5aR)-2-(4-Cyano-pyridin-2-yl)-1a,2,5,5a-tetrahydro-1H-2,3-diaza-cyclopropa[a]pentalene-4-carboxylic acid (2-hydroxy-1-hydroxymethyl-1-methyl-ethyl)-amide] | 8.58 | 7.42 |  |
| O=C(NC1(c2ccccn2)CCC1)c1nn(-c2c[n+]([O-])ccn2)c2c1C[C@@H]1C[C@H]21 [Compound 700, (1aS,5aS)-2-(4-Oxy-pyrazin-2-yl)-1a,2,5,5a-tetrahydro-1H-2,3-diaza-cyclopropa[a]pentalene-4-carboxylic acid (1-pyridin-2-yl-cyclobutyl)-amide] | 8.50 | 7.50 |  |
| CC(C)(C)[C@@H](CO)NC(=O)c1nn(-c2cnccn2)c2c1C[C@@H]1C[C@H]21 [Compound 696, (1aS,5aS)-2-Pyrazin-2-yl-1a,2,5,5a-tetrahydro-1H-2,3-diaza-cyclopropa[a]pentalene-4-carboxylic acid ((S)-1-hydroxymethyl-2,2-dimethyl-propyl)-amide] | 8.16 | 7.31 |  |
| O=C(NC1(CO)CC1)c1nn(-c2ccc(Cl)cc2Cl)c2c1C[C@H]1C[C@@H]21 [Compound 174, (1aR,5aR)-2-(2,4-Dichloro-phenyl)-1a,2,5,5a-tetrahydro-1H-2,3-diaza-cyclopropa[a]pentalene-4-carboxylic acid (1-hydroxymethyl-cyclopropyl)-amide] | 7.42 | 6.78 |  |
| O=C(NC1(CF)CCC1)c1nn(-c2c[n+]([O-])ccn2)c2c1C[C@@H]1C[C@H]21 [Compound 924, (1aS,5aS)-2-(4-Oxy-pyrazin-2-yl)-1a,2,5,5a-tetrahydro-1H-2,3-diaza-cyclopropa[a]pentalene-4-carboxylic acid (1-fluoromethyl-cyclobutyl)-amide] | 9.10 | 7.98 |  |
| O=C(NC1(CO)CCC1)c1nn(-c2c[n+]([O-])ccn2)c2c1C[C@H]1C[C@@H]21 [Compound 698, (1aR,5aR)-2-(4-Oxy-pyrazin-2-yl)-1a,2,5,5a-tetrahydro-1H-2,3-diaza-cyclopropa[a]pentalene-4-carboxylic acid (1-hydroxymethyl-cyclobutyl)-amide] | 7.99 | 7.55 |  |
| CC(C)(CO)NC(=O)c1nn(-c2ccc(F)cn2)c2c1C[C@H]1C[C@@H]21 [Compound 309, (1aR,5aR)-2-(5-Fluoro-pyridin-2-yl)-1a,2,5,5a-tetrahydro-1H-2,3-diaza-cyclopropa[a]pentalene-4-carboxylic acid (2-hydroxy-1,1-dimethyl-ethyl)-amide] | 7.72 | 6.87 |  |
| CC1(NC(=O)c2nn(-c3c[n+]([O-])ccn3)c3c2C[C@H]2C[C@@H]32)CCC1 [Compound 821, (1aR,5aR)-2-(4-Oxy-pyrazin-2-yl)-1a,2,5,5a-tetrahydro-1H-2,3-diaza-cyclopropa[a]pentalene-4-carboxylic acid (1-methyl-cyclobutyl)-amide] | 9.22 | 8.15 |  |
| CC(C)(CO)NC(=O)c1nn(-c2ccc(F)cc2F)c2c1C1CC1C2 (stereo not shown) [Compound 515, 1-(2,4-Difluoro-phenyl)-3b,4,4a,5-tetrahydro-1H-cyclopropa[3,4]cyclopenta[1,2-c]pyrazole-3-carboxylic acid (2-hydroxy-1,1-dimethyl-ethyl)-amide] | 8.36 |  |  |
| CC(C)[C@@H](CO)NC(=O)c1nn(-c2c[n+]([O-])ccn2)c2c1C[C@H]1C[C@@H]21 [Compound 690, (1aR,5aR)-2-(4-Oxy-pyrazin-2-yl)-1a,2,5,5a-tetrahydro-1H-2,3-diaza-cyclopropa[a]pentalene-4-carboxylic acid ((S)-1-hydroxymethyl-2-methyl-propyl)-amide] | 8.75 | 7.51 |  |
